# In PubChem BioAssay AID1996:
# Conditions: buffer; pH 7.4; 200.0 µM
row,SMILES,solubility kinetic
1,CN1C(=O)c2ccccc2N(C)C1c1ccccc1Cl (stereo unspecified),> 0.043 mg/mL
2,CC(C)(C)Nc1nc(Cl)nc(NC2CCCCC2)n1,0.0002 mg/mL
3,CCOC(=O)N1CCN(C(=O)COC(=O)c2cc(C)ccc2C)CC1,> 0.0523 mg/mL
4,CCc1ccc(OC(=O)CN2C(=O)c3ccccc3C2=O)cc1,0.0393 mg/mL
5,CCOc1cccc(/C=C/c2ccc3cccc(O)c3n2)c1OC,< 0.0007 mg/mL
6,O=C1c2ccccc2C(=O)N1OS(=O)(=O)c1ccc(F)cc1,> 0.0482 mg/mL
7,COc1ccc2oc(=O)c(C(=O)NCc3ccc(C)cc3)cc2c1,< 0.0007 mg/mL
8,O=S(=O)(/C=C/c1ccccc1)N1CCc2ccccc2C1,< 0.0006 mg/mL
9,CC(C)(C)NC(=O)CSc1nc2cc(S(=O)(=O)N3CCCCC3)ccc2o1,0.0037 mg/mL
10,CC1CCC2(CC1)NC(=O)N(CC(=O)N1CCOCC1)C2=O (stereo unspecified),> 0.0464 mg/mL
11,COc1ccc2nc(NCc3cccnc3)sc2c1,> 0.0407 mg/mL
12,Cc1cc2c(cc1C)C(c1cccc(F)c1)CC(=O)N2 (stereo unspecified),< 0.0006 mg/mL
13,CCCc1cc(=O)[nH]c(SCC(=O)NC2CC2)n1,> 0.0401 mg/mL
14,O=C(O)c1nn(-c2ccc(F)cc2)ccc1=O,> 0.0351 mg/mL
15,Cn1c(N)c(C(=O)COC(=O)CNC(=O)c2ccccc2F)c(=O)n(C)c1=O,> 0.0589 mg/mL
16,CSc1ccccc1NC(=O)c1ccccc1C,0.0309 mg/mL
17,O=[N+]([O-])c1ccc(S(=O)(=O)Nc2ncccn2)cc1,> 0.042 mg/mL
18,CCN(CC)Cc1c(O)ccc2c1O/C(=C\C=C\c1ccccc1)C2=O,0.0422 mg/mL
19,N#C/C(=C\c1ccccc1)C(=O)NCc1ccc(F)cc1,0.0053 mg/mL
20,COc1cccc(C(=O)NC2CC3CCC(C2)N3Cc2ccccc2)c1 (stereo unspecified),0.0522 mg/mL
21,O=C(NCc1cccnc1)Nc1ccc(Cl)c(Cl)c1,> 0.0444 mg/mL
22,COc1ccc(CC(=O)NC2CCCCCC2)c(OC)c1,0.0376 mg/mL
23,CCc1cccc(NC(=S)N(CCOC)C(C)c2ccco2)c1 (stereo unspecified),0.0079 mg/mL
24,O=C(NCc1csc(-c2cccs2)n1)Nc1ccc(C(F)(F)F)cc1,< 0.0003 mg/mL
25,OC(CN1CCC(Cc2ccccc2)CC1)C(F)(F)F (stereo unspecified),> 0.0431 mg/mL

row,SMILES,solubility kinetic
1,O=C(COC(=O)CNC(=O)C1CCCCC1)NCc1ccc(Cl)cc1,0.0495 mg/mL
2,O=C(Nc1cccnc1)c1ccc(Cl)c(Cl)c1,0.04 mg/mL
3,O=C1Cc2ccccc2C(=O)N1c1ccc(F)cc1Cl,0.0373 mg/mL
4,NS(=O)(=O)c1ccc(Sc2nc3ccccc3s2)c([N+](=O)[O-])c1,0.0017 mg/mL
5,Cc1ccc(C(=O)CNc2ccc(C)cc2C)cc1,0.0028 mg/mL
6,Cc1ccc(S(=O)(=O)N(C)C)cc1NC(=O)Nc1ccccc1,< 0.0002 mg/mL
7,Cc1ccc(C(C)C)c(OCCCn2ccnc2C)c1.O=C(O)C(=O)O,0.0512 mg/mL
8,Cc1ccc(CONC(=O)c2cccc(C)c2)cc1,0.0382 mg/mL
9,C[n+]1c(-c2ccccc2)sc([S-])c1-c1ccccc1,0.036 mg/mL
10,COC(CNc1nc(SC)nc2sc3c(c12)CCN(C)C3)OC,0.0524 mg/mL
11,CCc1nc(Nc2cccc(O)c2)c2oc3ccccc3c2n1.Cl,0.0005 mg/mL
12,Cc1ccc(C)c(NC(=O)c2cc3ccccc3o2)c1,0.0109 mg/mL
13,CCN(CC(=O)Nc1ccc(OC(F)F)cc1)C1CCCCC1,0.0331 mg/mL
14,O=C(Nc1nc2ccccc2[nH]1)c1ccccc1O,0.0002 mg/mL
15,COc1ccc(C(C)NC(=O)CCc2ccccc2)cc1 (stereo unspecified),0.0408 mg/mL
16,CC(=O)c1ccc(NC(=O)CCCC(=O)c2ccccc2)cc1,0.0036 mg/mL
17,CC1CCCN(C(=O)c2cc(-c3cccs3)nc3ccccc23)C1 (stereo unspecified),0.0172 mg/mL
18,CCCCCCNc1c([N+](=O)[O-])c(=O)sc2ccccc12,0.0044 mg/mL
19,Cl.O=C(CCN1CCOCC1)Nc1ccc(Cl)cc1,> 0.0458 mg/mL
20,CN(C)S(=O)(=O)c1cccc(NC(=O)c2c[nH]c3ccccc23)c1,0.0426 mg/mL
21,Cc1ccc(/C(=C\CN2CCCC2)c2ccccn2)cc1.Cl,> 0.0472 mg/mL
22,Cc1ccc(NC(=O)CCCN2C(=S)NC(C)(C)CC2C)cc1 (stereo unspecified),0.0455 mg/mL
23,COc1ccc(C(CNC(=O)c2cc(S(=O)(=O)NCc3ccco3)ccc2C)N(C)C)cc1 (stereo unspecified),> 0.0707 mg/mL
24,c1ccc(Cc2c[nH]c3ccccc23)cc1,0.0067 mg/mL
25,O=C(Nc1ccc2c(c1)CCC2)c1cccc(OC(F)F)c1,0.0102 mg/mL

row,SMILES,solubility kinetic
1,CCOc1cccc(C(=O)N/N=C/c2ccoc2)c1,> 0.0387 mg/mL
2,CN(NC1OC(=O)c2ccccc21)c1ccccc1[N+](=O)[O-] (stereo unspecified),> 0.0449 mg/mL
3,COc1ccc(C)cc1S(=O)(=O)Nc1ccncc1,> 0.0417 mg/mL
4,Cc1cc(C)c(NC(=O)Nc2ccccc2)c(C)n1,0.0343 mg/mL
5,CCOc1ccc(C(=O)N2CCN(c3ccccn3)CC2)cc1OCC,> 0.0533 mg/mL
6,CC(=O)OC(CC(=O)O)C[N+](C)(C)C.[Cl-] (stereo unspecified),> 0.036 mg/mL
7,O=C(CCNC(=O)c1ccco1)NCc1ccc(C(=O)O)cc1,> 0.0474 mg/mL
8,CC(C)C(NC(=O)c1c(F)cccc1F)C(=O)N1CCN(c2ncccn2)CC1 (stereo unspecified),0.0121 mg/mL
9,O=C(CSc1ncccn1)N1CCCCCC1,> 0.0377 mg/mL
10,CC1(C)CC(=O)N(c2ccc(Cl)c(Cl)c2)C(=O)C1,0.0096 mg/mL
11,O=C(CCCOc1ccccc1)NCCc1nc2ccccc2[nH]1,> 0.0485 mg/mL
12,Cc1noc(C)c1C(=O)Nc1cc(Cl)ccc1N1CCOCC1,0.0135 mg/mL
13,CN(CC(=O)Nc1ccccc1Cl)C(=O)COC(=O)c1cccs1,> 0.055 mg/mL
14,C=C(C)CCOC(=O)C(CC(=O)O)NCc1ccco1 (stereo unspecified),> 0.0422 mg/mL
15,O=C(O)c1ccc(/C=N/N2CCN(c3ccccc3)CC2)cc1,> 0.0464 mg/mL
16,Cc1cc(C)n(CC(=O)NCCC2=CCCCC2)n1,> 0.0392 mg/mL
17,N/C(=N\S(=O)(=O)c1cccs1)c1ccccc1Cl,> 0.0451 mg/mL
18,COc1ccccc1C(=O)NC(=O)CSc1nnc(C)s1,> 0.0485 mg/mL
19,COc1ccc(OC)c(CNc2c(C=O)c(=O)[nH]c3ccccc23)c1,< 0.0004 mg/mL
20,O=C(NCc1cccnc1)C(=O)Nc1nccs1,0.0204 mg/mL
21,Cc1ccccc1OCC(=O)Nc1ccc(N2CCN(C)CC2)c(Cl)c1,0.0123 mg/mL
22,CC(NC(=O)c1ccccc1C(=O)O)c1ccc(-n2ccnc2)cc1 (stereo unspecified),> 0.0503 mg/mL
23,CCN1CCN(CCC(=O)Nc2cc(C)ccc2C)CC1,> 0.0434 mg/mL
24,Cc1ccccc1-n1ccnc1SCC(=O)NCc1ccco1,> 0.0491 mg/mL
25,O=C(NC(=S)Nc1cccc(O)c1)C1CCCCC1,> 0.0418 mg/mL

row,SMILES,solubility kinetic
1,O=C(N/N=C/c1cc(Cl)cc([N+](=O)[O-])c1O)C1CC1,> 0.0426 mg/mL
2,COc1cccc2[nH]c(C(=O)NC(C)c3ccccc3)cc12 (stereo unspecified),> 0.0442 mg/mL
3,CCN(CC)CCCNc1oc(/C=C/c2ccccc2)nc1C#N,> 0.0487 mg/mL
4,O=C(NCc1ccccc1)C12CC3CC(CC(Br)(C3)C1)C2,0.0066 mg/mL
5,Cc1ccc(NS(=O)(=O)c2ccc3[nH]c(=O)[nH]c3c2)cc1,0.0054 mg/mL
6,CC(=O)NCCc1ccc(C(=O)COC(=O)c2cc(C)oc2C)cc1,> 0.0515 mg/mL
7,Cc1ccc(-c2csc(NC(=O)CN3CCOCC3)n2)cc1,> 0.0476 mg/mL
8,CC(=O)Cn1c(CN2CCCCC2)nc2ccccc2c1=O,> 0.0449 mg/mL
9,COc1cc(C(F)(F)F)ccc1C(=O)NCCc1ccco1,0.0429 mg/mL
10,NC(=O)c1cc(-c2ccncc2)nc2ccc(Cl)cc12,0.037 mg/mL
11,O=C(O)c1cccnc1,> 0.0185 mg/mL
12,Cc1cc(OCC(=O)N(C)Cc2ccccc2)cc(C)c1Cl,0.0083 mg/mL
13,CC1(C)C(=S)N(Cc2ccccc2)c2ccccc21,< 0.0006 mg/mL
14,O=C1C(CSCc2ccccc2)NC(=S)N1c1ccccc1 (stereo unspecified),0.0029 mg/mL
15,COc1ccc(OC)c2nc(-c3ccncc3)ccc12,> 0.0399 mg/mL
16,CCC(=O)Nc1ccc2c(c1)nc1n2CCN(C2CCCCC2)C1,> 0.049 mg/mL
17,CCn1c(O)c(C=NC2CCCC(C)C2C)sc1=S (stereo unspecified),0.0043 mg/mL
18,O=C(Nc1ccc(Cl)cc1)C1CCN(C(=O)c2cccs2)CC1,0.0129 mg/mL
19,CCOC(=O)C1CCCN(Cc2cc(=O)oc3cc(C)ccc23)C1 (stereo unspecified),0.0405 mg/mL
20,COc1ccccc1NC(=O)CC(=O)c1ccccc1,> 0.0404 mg/mL
21,O=C(NCC(c1ccco1)N1CCCCC1)c1ccc([N+](=O)[O-])s1 (stereo unspecified),> 0.0524 mg/mL
22,CCOC(=O)c1csc(NC(=O)c2cc3ccccc3o2)n1,0.0008 mg/mL
23,COc1ccc(NC(=O)/C=C/C(=O)O)c(OC)c1,0.037 mg/mL
24,COCCOn1c(SCCOC)nc2ccccc2c1=O,> 0.0466 mg/mL
25,O=C(COc1cccc2c1CCNC2=O)Nc1ccc(F)cc1,> 0.0471 mg/mL

row,SMILES,solubility kinetic
1,O=C(Cc1ccc(Cl)cc1Cl)Nc1ccncc1,0.031 mg/mL
2,C=CCn1cnnc1SCC(=O)Nc1cccnc1Cl,> 0.0465 mg/mL
3,COc1ccccc1CNC(c1ccccc1)c1ccccc1,0.0033 mg/mL
4,Cc1cccc(NC(=O)c2cccc(C(=O)Nc3cccc(C)n3)c2)n1,0.0009 mg/mL
5,O=C(NC(=S)Nc1cccc2ncccc12)c1cccs1,0.0017 mg/mL
6,C/C=C/C(=O)Nc1ccc(N2CCN(c3ccc(C(F)(F)F)cn3)CC2)nc1,< 0.0002 mg/mL
7,CC(C)c1ccc(Nc2c([N+](=O)[O-])c(=O)n(C)c3ccccc23)cc1,< 0.0002 mg/mL
8,O=C(Nc1ccccc1)Nc1ccccc1Br,0.0021 mg/mL
9,c1csc(-c2nc(CN3CCSCC3)cs2)c1,0.0328 mg/mL
10,CCOc1cc(-c2nc3ccccc3s2)ccc1O,0.0011 mg/mL
11,Cc1ccc(CNC(=O)CCCC(=O)c2ccccc2)cc1,0.0079 mg/mL
12,CCn1c(C)c(C(=O)Nc2ccc(OC)cc2)c2cc(OC)ccc21,0.0004 mg/mL
13,CCc1ccc(C(=O)CN2C(=O)NC3(CCc4ccccc43)C2=O)cc1 (stereo unspecified),0.0065 mg/mL
14,CCC(=NCc1ccco1)c1c(O)n(C)c(=O)n(C)c1=O,> 0.0437 mg/mL
15,COc1cc2c(cc1OC)-c1cc(Nc3ccccc3C)nc(=O)n1CC2,0.0493 mg/mL
16,CC(=O)CSc1nc(-c2ccccc2)c(-c2ccccc2)o1,0.0031 mg/mL
17,Cc1csc(SC(C)C(=O)NCc2ccc3c(c2)OCO3)n1 (stereo unspecified),0.049 mg/mL
18,COc1ccc(NC(=S)NC(=O)/C=C/c2ccccc2)cc1,< 0.0003 mg/mL
19,CCOc1cccc(NC(=O)/C(C#N)=C/c2cccnc2)c1,0.0317 mg/mL
20,Cn1cccc1/C=N\NC(=O)c1cncc(Br)c1,> 0.0461 mg/mL
21,CC(CN1CCCC1)OC(=O)Cc1ccc(Cl)cc1.Cl (stereo unspecified),> 0.0477 mg/mL
